Results: patent US4898936A, “2-deoxyuridines and riboside precursors” (priority 1985, dated 1990)
Values joined by “and” are separate entries in the source; they are usually repeats but may differ in a detail not shown here. Equal entries are not always repeated.

Experiments:
[1] = format: in vivo; details: lethal dose, administered orally; + Test animals alive at indicated dose
Protocol: (§1) The effective dose and the lethal dose has been determined as follows:
The dosage is administered

[2] = test system: Sarcoma 180; experiment: Comparison of activities of antitumor agents on Sarcoma 180 in mice (50% tumor regression); format: in vivo; details: Mus musculus
Source text: In comparison with the activities of other antitumor agents on Sarcoma 180 in mice, the following results were obtained: […]

[3] = cited from earlier work; for Toxicity value (B): Administration amount of test compound at which weight increase of test animal is inhibited by 50% compared with that of control group: oral, once a day for 7 consecutive days, mice
[4] = test system: Sarcoma 180; experiment: Antitumor activity in mice against Sarcoma 180 (effective dose); format: in vivo; details: Sarcoma 180, mice; for ED50: Mus musculus, po, effective dose, administered orally
Protocol: as §1
^+ Test animals alive at indicated dose. The dosage is administered

[5] = test system: Sarcoma 180; format: in vivo, mouse (male ICR/JCL-strain); details: toxicity value (B) / antitumor activity value (A); oral, mice
Protocol: (c) Calculation of therapeutic index
By the use of the antitumor activity value (hereinafter referred to as A) and the toxicity value (hereinafter referred to as B) of each compound, which were obtained in the above items (a) and (b), respectively, therapeutic index (hereinafer referred to as C) was calculated in accordance with the following equation: […]
Pharmacological tests-(Continued) [formula]

[6] = test system: Sarcoma 180; details: cited from earlier work; for Antitumor activity value (A): Administration amount of test compound, at which tumor enhancement is inhibited by 50% compared with that of control group: oral, once a day for 7 consecutive days, tumor weight on tenth day, Sarcoma 180, mice, 14400 min
[7] = test system: Sarcoma 180; details: from Table 1; cited from earlier work
[8] = Hygroscopicity; format: physicochemical; details: beta-anomer

SMILES | LD10 [1] | ED50 [2] | toxicity compared with F3 TdR and FudR (in words) ([3]; from Table 1) | Toxicity value (B): Administration amount of test compound at which weight increase of test animal is inhibited by 50% compared with that of control group [3] | ED50 [4] | antitumor activity in mice against Sarcoma 180 (in words) [4] | Therapeutic Index (C) = (B)/(A) [5] | antitumor activity compared with F3 TdR and FudR (in words) ([6]; from Table 1) | Antitumor activity value (A): Administration amount of test compound, at which tumor enhancement is inhibited by 50% compared with that of control group [6] | usefulness when compared in therapeutic index (in words) [7] | hygroscopicity [8]
O=c1[nH]c(=O)n([C@H]2C[C@H](OCc3ccccc3)[C@@H](CO)O2)cc1C(F)(F)F [3'-O-Benzyl-2'-Deoxy-5-Trifluoromethyluridine] | 80 mg/kg | 14 mg/kg | equal or superior to F3 TdR and FudR in toxicity | 32 mg/kg/day | 14 mg/kg | show antitumor activity in mice against Sarcoma 180 | 1.88 | far superior to them in antitumor activity | 17 mg/kg/day | especially useful | 
O=c1[nH]c(=O)n([C@H]2C[C@H](OCc3ccccc3)[C@@H](CO)O2)cc1F [3'-O-Benzyl-2'-deoxy-5-fluorouridine, 3'-O-Benzyl-2'-Deoxy-5-Fluorouridine] |  |  |  | 35 mg/kg/day |  | show antitumor activity in mice against Sarcoma 180 | 2.06 |  | 17 mg/kg/day | especially useful | not hygroscopic
Nc1nc(=O)n([C@H]2C[C@H](O)[C@@H](CO)O2)cc1C(F)(F)F [CF3 dC, 5-Trifluoromethyl-2deoxycytidine] |  | 60 to 80 mg/kg |  |  |  |  |  |  |  |  | 
O=c1[nH]c(=O)n([C@H]2C[C@H](O)[C@@H](CO)O2)cc1C(F)(F)F [F3 TdR, 2'-deoxy-5-trifluoromethyluridine, reference compound] |  | 60 to 80 mg/kg |  | 49 mg/kg/day and 40 mg/kg/day | 75 mg/kg |  |  |  | 68 mg/kg/day and 58 mg/kg/day |  | 
O=c1[nH]c(=O)n(C2CCCO2)cc1F (stereo not shown) [Ftorafur] |  | 120 mg/kg |  |  |  |  |  |  |  |  | 
O=c1[nH]c(=O)n([C@H]2C[C@H](O)[C@@H](CO)O2)cc1F [FudR, 2'-deoxy-5-fluorouridine, reference compound] |  |  |  | 71 mg/kg/day |  |  | 0.76 |  | 93 mg/kg/day |  | 
